These are literature values, as cited in patent US8247391B2, “Gel compositions” (De Montfort University, priority 2001, dated 2012).

Converted amounts (≈) assume the structure as drawn.

The conditions of this data set: room temperature, pH 7.3 buffer (with antioxidants).
`CC1=C(/C=C/C(C)=C/C=C/C(C)=C/C=O)C(C)(C)CCC1` [retinal, retinaldehyde]: the water solubility was 0.11 µM (≈ 0.0313 µg/mL).
For `CC1=C(/C=C/C(C)=C/C=C/C(C)=C/C(=O)O)C(C)(C)CCC1` [retinoic acid], the water solubility was 0.21 µM (≈ 0.0631 µg/mL).
`CC1=C(/C=C/C(C)=C/C=C/C(C)=C/CO)C(C)(C)CCC1` [retinol, Retinol]: the water solubility was 0.06 µM (≈ 0.0172 µg/mL).
